Test results published in ChEMBL document CHEMBL1201862, “PubChem BioAssay data set” (2004).
Activity calls are given as the source filed them.

Key:
A549 = assay: A549 cell toxicity, dose response, cytotoxicity control, plate reader, cherry-pick samples (AID 687028); type: functional, cell-based; details: Homo sapiens
[1] = target: Potassium channel subfamily K member 9 (Homo sapiens, UniProt Q9NPC2); assay: TASK3 (KCNK9) channel inhibitors, thallium flux, SAR follow-up, selectivity assay for TASK1 inhibitor project, cell-based, FluxOR thallium flux, concentration-response (AID 652211); type: functional;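 also: potency is for inhibitors of the channel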
[2] = T. cruzi intracellular amastigote growth inhibition, dose response, imaging, CA-I/72 strain, bovine embryo skeletal muscle, dry powder (AID 651885); type: functional, cell-based
[3] = target: Kappa-type opioid receptor (Homo sapiens, UniProt P41145); assay: OPRK1 antagonists, late-stage follow-up, cell-based, fluorescence, dose response (AID 652032); type: functional
NS3 = NS3 (Hepatitis C virus, UniProt A3EZJ3); assay: HCV NS3 helicase inhibitor potency, dose response, biochemical, fluorescence polarization, ChemBridge library (AID 743264)
[4] = HepG2 cell cytotoxicity, dose response, cytotoxicity control, cherry-picks, set 5 (AID 1053118); type: functional, cell-based
[5] = HEK293 cell cytotoxicity, dose response, cytotoxicity control, cherry-picks, set 5 (AID 1053117); type: functional, cell-based

Potassium channel subfamily K member 9, sequence (Q9NPC2 whole entry): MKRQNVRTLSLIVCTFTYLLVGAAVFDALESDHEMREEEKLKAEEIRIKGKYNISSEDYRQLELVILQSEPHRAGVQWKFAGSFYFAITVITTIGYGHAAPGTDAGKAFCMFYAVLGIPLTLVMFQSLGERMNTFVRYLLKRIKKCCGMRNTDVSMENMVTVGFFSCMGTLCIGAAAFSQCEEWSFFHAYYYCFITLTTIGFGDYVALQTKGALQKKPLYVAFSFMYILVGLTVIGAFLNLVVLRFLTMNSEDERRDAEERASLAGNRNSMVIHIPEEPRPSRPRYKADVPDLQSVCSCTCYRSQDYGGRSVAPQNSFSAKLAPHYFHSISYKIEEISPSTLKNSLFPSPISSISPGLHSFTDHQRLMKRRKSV
NS3, sequence (A3EZJ3 whole entry): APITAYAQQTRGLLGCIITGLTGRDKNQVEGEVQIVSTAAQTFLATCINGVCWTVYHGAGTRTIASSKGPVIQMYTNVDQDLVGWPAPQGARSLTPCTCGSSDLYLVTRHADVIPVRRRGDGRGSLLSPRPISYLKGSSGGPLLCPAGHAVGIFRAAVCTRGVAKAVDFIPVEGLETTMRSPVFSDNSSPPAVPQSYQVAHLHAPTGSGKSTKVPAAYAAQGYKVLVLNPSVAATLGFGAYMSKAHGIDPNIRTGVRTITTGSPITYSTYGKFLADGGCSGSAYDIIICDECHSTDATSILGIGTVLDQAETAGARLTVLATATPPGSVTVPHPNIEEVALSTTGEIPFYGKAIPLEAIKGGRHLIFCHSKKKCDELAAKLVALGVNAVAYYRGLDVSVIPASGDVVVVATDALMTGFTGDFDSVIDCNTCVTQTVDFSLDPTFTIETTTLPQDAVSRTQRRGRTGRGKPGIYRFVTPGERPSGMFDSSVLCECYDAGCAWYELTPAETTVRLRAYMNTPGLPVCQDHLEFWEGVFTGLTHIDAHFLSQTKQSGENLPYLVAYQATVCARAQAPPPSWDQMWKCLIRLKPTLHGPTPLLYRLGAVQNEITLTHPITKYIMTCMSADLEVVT
Kappa-type opioid receptor, sequence (P41145 whole entry): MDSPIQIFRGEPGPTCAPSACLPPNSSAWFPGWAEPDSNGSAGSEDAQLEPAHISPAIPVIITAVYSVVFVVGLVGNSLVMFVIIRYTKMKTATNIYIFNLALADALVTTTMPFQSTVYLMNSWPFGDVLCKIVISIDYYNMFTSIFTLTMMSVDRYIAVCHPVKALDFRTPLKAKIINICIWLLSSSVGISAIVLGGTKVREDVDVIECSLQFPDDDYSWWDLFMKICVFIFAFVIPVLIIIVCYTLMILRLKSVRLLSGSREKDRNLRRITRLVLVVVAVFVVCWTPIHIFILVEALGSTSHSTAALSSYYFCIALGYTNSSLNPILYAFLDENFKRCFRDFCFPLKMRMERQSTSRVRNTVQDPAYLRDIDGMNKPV

Cc1ccc(S(=O)(=O)N(C)C[C@@H]2OCCCC[C@H](C)Oc3ccc(NS(=O)(=O)c4c(C)noc4C)cc3C(=O)N([C@H](C)CO)C[C@@H]2C)cc1
AC50 (A549): 25.1 µM (active)

Cc1cccc(C(=O)Nc2cccc(NC(=O)c3ccco3)c2)c1
IC50 [1]: 1.67 µM (active)

CC(C)N(C)C(=O)c1cccc(NC(=O)c2ccncc2)c1OCCCN(C)Cc1ccc(Cl)cc1
IC50 [2]: 0.385 µM (active)

COC(=O)c1cc(Br)cnc1N1CCC(NC2CCCCC2)C(C)C1 (configuration not stated)
IC50 [3]: 0.075 µM (active)

O=C1NC(=O)N(c2ccccc2F)C(=O)/C1=C/c1ccc(-c2cc(C(=O)O)ccc2Cl)o1
IC50 (NS3): 35 µM (inactive)

COc1cccc(-c2ccc3c(c2)[C@H]2[C@H](CCN2S(=O)(=O)c2cccc(OC)c2)[C@@H](CO)N3)c1
AC50 [4]: > 52 µM (inactive) | AC50 [5]: 29.7 µM (active)
